Experimental data: patent US20200163984A1, “USE OF ISOVALERYL SPIRAMYCIN I, II AND/OR III IN MANUFACTURING MEDICAMENT FOR TREATING AND/OR PREVENTING TUMOR, AND MEDICAMENT” (SHENYANG FUYANG PHARMACEUTICAL TECHNOLOGY CO., LTD., priority 2017, published 2020)
Values after ≈ are worked out from the molar mass of the structure shown.

Assays:
[1] = Thymus index and spleen index of H22 liver cancer tumor-bearing mice
Experimental: In the H22 liver cancer model, the mice inoculated with the tumor were randomly divided into groups with 10 mice in each group on the next day of inoculation. The groups included: a model control group, a positive drug cyclophosphamide control group (CTX, 26 mg/kg), isovaleryl spiramycin I groups with doses of 13, 26 and 52 mg/kg; isovaleryl spiramycin II groups with doses of 13, 26 and 52 mg/kg; isovaleryl spiramycin III groups with doses of 13, 26 and 52 mg/kg. Each group was continuously administered intragastrically for 7 days with a dose of 20 ml/kg.

[2] = system: transplanted tumor of human non-small cell lung cancer cell A549; assay: A549 transplanted tumor in nude mice; conditions: for Tumor Volume (mm3) (d 1): d1
Experimental: (§1) A549 cells in a logarithmic growth phase were taken and subjected to a trypan blue exclusion experiment showing that the cell viability was more than 95%, then the cells were subjected to trypsinization, centrifugation, and supernatant removal. Then cell concentration was adjusted to 1×10^7/ml with matrigel, then each nude mouse was inoculated subcutaneously with 0.2 ml of cells at its right armpit and recorded as the first day of inoculation. When the tumor grows to be greater than or equal to 100 mm^3, the mice were randomly divided into 11 groups with 6 mice in each group: a model group, a cyclophosphamide group, isovaleryl spiramycin I groups with doses of 25, 50 and 100 mg/kg, isovaleryl spiramycin II groups with doses of 25, 50 and 100 mg/kg, and isovaleryl spiramycin III groups with doses of 25, 50 and 100 mg/kg. Each group was continuously administered intragastrically for 30 days with a dose of 20 ml/kg. The mice were sacrificed the next day after drug withdrawal and the indicators were tested. The long diameter and short diameter of the tumor, and the body weight of each mouse were recorded every 3 days from drug administration to nude mouse sacrifice.
(§2) The body weight of the nude mice and the long diameter (a) and short diameter (b) of the transplanted tumor were measured every 3 days, and the tumor volume (v), relative tumor volume (RTV) and relative tumor proliferation rate (T/C) are calculated respectively according to the following formulas, wherein V=a×b^2/2; RTV=V/V0 (V0 is the tumor volume before administration, V is the tumor volume before sacrifice), and T/C (%)=treatment group RTV/model control group RTV×100%.
(§3) Each mouse was weighed and sacrificed. After the tumor was completely stripped off from the body of the mouse, the non-tumor tissues such as blood stains and fat were removed to weigh the tumor and calculate the tumor growth inhibition rate. The average tumor weight of each group of mice is used as an indicator of efficacy. Tumor growth inhibition rate (%)=(1−the average tumor weight of the treatment group/the average tumor weight of the model group)×100%.

[3] = system: transplanted tumor of human hepatoma cell HepG-2; assay: HepG-2 transplanted tumor in nude mice; conditions: for Tumor Volume (mm3) (d 1): d1
Experimental: as §1, with “Then” for “A549 cells in a logarithmic growth phase were taken and subjected to a trypan blue exclusion experiment showing that the cell viability was more than 95%, then the cells were subjected to trypsinization, centrifugation, and supernatant removal. Then”
as §2, §3

[4] = system: human thyroid cancer cell TPC-1; conditions: TPC-1, MTT
Text: (§4) The purpose of the assay is to evaluate the in vitro cell proliferation inhibition or cytotoxic activity of a tested sample.
(§5) Human breast cancer cells MCF-7 and MDA-MB-231, human hepatoma cells HepG2, human non-small cell lung cancer cells A549, human large cell lung cancer cells H460 and H1299, human renal clear cell adenocarcinoma cell 786-0, human renal cell adenocarcinoma cell 769-P, human glioma cell U251, human glioblastoma cell A172, human tissue lymphoma cell U937, human cervical cancer cell HeLa, human prostate cancer cell PC3, human pancreatic cancer cell PANC-1, human esophageal cancer cell TE-1, human gastric adenocarcinoma cell SGC7901, human colon cancer cell HT-29, human promyelocytic leukemia cell HL-60, human thyroid cancer cell TPC-1, and human bladder cancer cell T-24.
(§6) The inhibition rate of the medicament on tumor cell growth is calculated according to the following formula:
(§7) Tumor cell growth inhibition rate (%)=[A492 (negative control)−A492 (dosing group)]/A492 (negative control)×100%
(§8) And the half-inhibitory concentration (IC50) of the sample is determined therefrom.

[5] = system: human bladder cancer cell T-24; conditions: T-24, MTT
Text: as §4, §5, §6, §7, §8

[6] = A549, high dose (100 mg/kg in method) i.g. 30 days
[7] = A549, low dose (25 mg/kg in method) i.g. 30 days
[8] = A549, medium dose (50 mg/kg in method) i.g. 30 days
[9] = HepG-2, high dose (100 mg/kg in method) i.g. 30 days
[10] = HepG-2, low dose (25 mg/kg in method) i.g. 30 days
[11] = HepG-2, medium dose (50 mg/kg in method) i.g. 30 days

CO[C@@H]1[C@@H](O[C@@H]2O[C@H](C)[C@@H](O[C@H]3C[C@@](C)(O)[C@@H](OC(=O)CC(C)C)[C@H](C)O3)[C@H](N(C)C)[C@H]2O)[C@@H](CC=O)C[C@@H](C)[C@@H](O[C@H]2CC[C@H](N(C)C)[C@@H](C)O2)/C=C/C=C/C[C@@H](C)OC(=O)C[C@H]1O [Isovaleryl spiramycin I, isovaleryl spiramycin I]
Spleen Index (%) ([1]; dose 13 mg/kg): 0.72 ± 0.07%
Thymus Index (%) ([1]; dose 13 mg/kg): 0.15 ± 0.07%
Spleen Index (%) ([1]; dose 26 mg/kg): 0.60 ± 0.15%
Thymus Index (%) ([1]; dose 26 mg/kg): 0.14 ± 0.01%
Spleen Index (%) ([1]; dose 52 mg/kg): 0.86 ± 0.25 %
Thymus Index (%) ([1]; dose 52 mg/kg): 0.12 ± 0.04%
Relative Tumor Proliferation Rate (T/C) [2, 6]: 28.35%
tumor growth inhibition rate [2, 6]: 69.52%
Relative Tumor Proliferation Rate (T/C) [2, 7]: 67.18%
tumor growth inhibition rate [2, 7]: 24.00%
tumor volume and relative tumor volume compared with the model group ([2]; A549, low, medium and high doses, P<0.05): significantly lower
Relative Tumor Proliferation Rate (T/C) [2, 8]: 41.93%
tumor growth inhibition rate [2, 8]: 58.10%
Inhibition Rate (%) ([2]; A549 nude mice, 25 mg/kg): 24.00%
Relative Tumor Proliferation Rate (T/C) ([2]; A549 nude mice, 25 mg/kg): 67.18%
Relative Tumor Volume (RTV) ([2]; A549 nude mice, 25 mg/kg): 10.91 ± 2.63
Tumor Weight ([2]; A549 nude mice, 25 mg/kg): 1.82 ± 0.19 g
Tumor Volume (mm3) (d 1) ([2]; A549 nude mice, 25 mg/kg): 111.89 ± 12.17 mm3
Tumor Volume (mm3) (d30) ([2]; A549 nude mice, 25 mg/kg): 1227.24 ± 329.84 mm3
Inhibition Rate (%) ([2]; A549 nude mice, 50 mg/kg): 58.10%
Relative Tumor Proliferation Rate (T/C) ([2]; A549 nude mice, 50 mg/kg): 39.42%
Relative Tumor Volume (RTV) ([2]; A549 nude mice, 50 mg/kg): 6.40 ± 1.75
Tumor Weight ([2]; A549 nude mice, 50 mg/kg): 1.00 ± 0.44 g
Tumor Volume (mm3) (d 1) ([2]; A549 nude mice, 50 mg/kg): 119.73 ± 5.73 mm3
Tumor Volume (mm3) (d30) ([2]; A549 nude mice, 50 mg/kg): 750.44 ± 220.77 mm3
Inhibition Rate (%) ([2]; A549 nude mice, 100 mg/kg): 69.52%
Relative Tumor Proliferation Rate (T/C) ([2]; A549 nude mice, 100 mg/kg): 28.35%
Relative Tumor Volume (RTV) ([2]; A549 nude mice, 100 mg/kg): 4.60 ± 3.69
Tumor Weight ([2]; A549 nude mice, 100 mg/kg): 0.73 ± 0.45 g
Tumor Volume (mm3) (d 1) ([2]; A549 nude mice, 100 mg/kg): 110.27 ± 11.43 mm3
Tumor Volume (mm3) (d30) ([2]; A549 nude mice, 100 mg/kg): 475.83 ± 355.37 mm3
mouse weight compared with the model group ([2]; mouse, in vivo): no significant changes
Body Weight (g) (d1) ([2]; mouse, in vivo, 25 mg/kg): 21.54 ± 1.27 g
Body Weight (g) (d30) ([2]; mouse, in vivo, 25 mg/kg): 24.20 ± 1.33 g
Body Weight (g) (d1) ([2]; mouse, in vivo, 50 mg/kg): 21.48 ± 1.46 g
Body Weight (g) (d30) ([2]; mouse, in vivo, 50 mg/kg): 25.56 ± 1.67 g
Body Weight (g) (d1) ([2]; mouse, in vivo, 100 mg/kg): 21.36 ± 1.82 g
Body Weight (g) (d30) ([2]; mouse, in vivo, 100 mg/kg): 24.47 ± 1.98 g
Relative Tumor Proliferation Rate (T/C) [3, 9]: 27.49%
tumor growth inhibition rate [3, 9]: 68.22%
Relative Tumor Proliferation Rate (T/C) [3, 10]: 65.03%
tumor growth inhibition rate [3, 10]: 24.43%
tumor volume and relative tumor volume compared with the model group ([3]; HepG-2, low, medium and high doses, P<0.05): significantly lower
Relative Tumor Proliferation Rate (T/C) [3, 11]: 42.12%
tumor growth inhibition rate [3, 11]: 57.93%
Inhibition Rate (%) ([3]; HepG-2 nude mice, 25 mg/kg): 24.43%
Relative Tumor Proliferation Rate (T/C) ([3]; HepG-2 nude mice, 25 mg/kg): 65.03%
Relative Tumor Volume (RTV) ([3]; HepG-2 nude mice, 25 mg/kg): 10.89 ± 2.67
Tumor Weight ([3]; HepG-2 nude mice, 25 mg/kg): 1.84 ± 0.23 g
Tumor Volume (mm3) (d 1) ([3]; HepG-2 nude mice, 25 mg/kg): 114.02 ± 11.68 mm3
Tumor Volume (mm3) (d30) ([3]; HepG-2 nude mice, 25 mg/kg): 1248.33 ± 337.59 mm3
Inhibition Rate (%) ([3]; HepG-2 nude mice, 50 mg/kg): 57.93%
Relative Tumor Proliferation Rate (T/C) ([3]; HepG-2 nude mice, 50 mg/kg): 42.12%
Relative Tumor Volume (RTV) ([3]; HepG-2 nude mice, 50 mg/kg): 7.05 ± 3.35
Tumor Weight ([3]; HepG-2 nude mice, 50 mg/kg): 1.02 ± 0.45 g
Tumor Volume (mm3) (d 1) ([3]; HepG-2 nude mice, 50 mg/kg): 122.31 ± 4.68 mm3
Tumor Volume (mm3) (d30) ([3]; HepG-2 nude mice, 50 mg/kg): 851.37 ± 371.80 mm3
Inhibition Rate (%) ([3]; HepG-2 nude mice, 100 mg/kg): 68.22%
Relative Tumor Proliferation Rate (T/C) ([3]; HepG-2 nude mice, 100 mg/kg): 27.49%
Relative Tumor Volume (RTV) ([3]; HepG-2 nude mice, 100 mg/kg): 4.60 ± 3.39
Tumor Weight ([3]; HepG-2 nude mice, 100 mg/kg): 0.77 ± 0.44 g
Tumor Volume (mm3) (d 1) ([3]; HepG-2 nude mice, 100 mg/kg): 110.06 ± 9.58 mm3
Tumor Volume (mm3) (d30) ([3]; HepG-2 nude mice, 100 mg/kg): 481.16 ± 326.94 mm3
mouse weight compared with the model group ([3]; mouse, in vivo): no significant changes
Body Weight (g) (d1) ([3]; mouse, in vivo, 25 mg/kg): 21.36 ± 1.67 g
Body Weight (g) (d30) ([3]; mouse, in vivo, 25 mg/kg): 23.24 ± 1.33 g
Body Weight (g) (d1) ([3]; mouse, in vivo, 50 mg/kg): 21.47 ± 1.58 g
Body Weight (g) (d30) ([3]; mouse, in vivo, 50 mg/kg): 23.64 ± 1.67 g
Body Weight (g) (d1) ([3]; mouse, in vivo, 100 mg/kg): 21.37 ± 1.36 g
Body Weight (g) (d30) ([3]; mouse, in vivo, 100 mg/kg): 22.867 ± 1.57 g
IC50 [4]: 19.97 ± 1.93 µg/mL (≈ 21.5 µM)
IC50 [5]: 18.68 ± 0.58 µg/mL (≈ 20.1 µM)
